US20230111310A1, “CARBOXYLIC ACID DERIVATIVE-SUBSTITUTED IMINO ARYL COMPOUND, PREPARATION METHOD THEREFOR, HERBICIDAL COMPOSITION AND USE THEREOF” (Qingdao Kingagroot Chemical Compound Co., Ltd., priority 2020, published 2023)

Experiments:
Assay in all cases: Weeding effect in post-emergence stage
Format in all cases: in vivo
Conditions in all cases: Dose 15 g/ha; fresh weight control rate level
Abutilon theophrasti = system: Abutilon theophrasti
Outline: (§1)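 Doses of 500, 250, 125, 60, 30, 15 and 7.5 g/ha, with methyl oleate synergist (1.5 liter/ha) and Tween 80 from acetone solution, applied by spray tower post-emergence (2–3 leaf stage). Weed control scored after 3 further greenhouse weeks, averaged over triplicates.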

Alopecurus japonicus = system: Alopecurus japonicus
Outline: as §1

Digitaria sanguinalis = system: Digitaria sanguinalis
Outline: as §1

Eleusine indica = system: Eleusine indica
Outline: as §1

Setaria viridis = system: Setaria viridis
Outline: as §1

Echinochloa crusgalli = system: Echinochloa crusgalli
Outline: as §1

| SMILES | Weeding effect in post-emergence stage, Abutilon theophrasti (level) (Abutilon theophrasti) | Weeding effect in post-emergence stage, Alopecurus japonicus (level) (Alopecurus japonicus) | Weeding effect in post-emergence stage, Digitaria sanguinalis (level) (Digitaria sanguinalis) | Weeding effect in post-emergence stage, Eleusine indica (level) (Eleusine indica) | Weeding effect in post-emergence stage, Setaria viridis (level) (Setaria viridis) | Weeding effect in post-emergence stage, Echinochloa crusgalli (level) (Echinochloa crusgalli) |
| --- | --- | --- | --- | --- | --- | --- |
| CC(O/N=C/c1cc(-n2c(=O)cc(C(F)(F)F)n(C)c2=O)c(F)cc1Cl)C(=O)OCc1ccc(Cl)nc1 (stereo not drawn) [Compound 495] | 5 (Level 5: growth control rate is above 85%) | 5 (Level 5: growth control rate is above 85%) | 5 (Level 5: growth control rate is above 85%) | 5 (Level 5: growth control rate is above 85%) | 5 (Level 5: growth control rate is above 85%) | 5 (Level 5: growth control rate is above 85%) |
| COC(=O)C(CCO)O/N=C/c1cc(-n2c(=O)cc(C(F)(F)F)n(C)c2=O)c(F)cc1Cl (stereo not drawn) [Compound 496] | 5 (Level 5: growth control rate is above 85%) | 5 (Level 5: growth control rate is above 85%) | 5 (Level 5: growth control rate is above 85%) | 5 (Level 5: growth control rate is above 85%) | 5 (Level 5: growth control rate is above 85%) | 5 (Level 5: growth control rate is above 85%) |
| COC(=O)C(CCCl)O/N=C/c1cc(-n2c(=O)cc(C(F)(F)F)n(C)c2=O)c(F)cc1Cl (stereo not drawn) [Compound 497] | 5 (Level 5: growth control rate is above 85%) | 5 (Level 5: growth control rate is above 85%) | 5 (Level 5: growth control rate is above 85%) | 5 (Level 5: growth control rate is above 85%) | 5 (Level 5: growth control rate is above 85%) | 5 (Level 5: growth control rate is above 85%) |
| CC(O/N=C/c1cc(-n2c(=O)cc(C(F)(F)F)n(C)c2=O)c(F)cc1Cl)C(=O)OCCC1OCCO1 (stereo not drawn) [Compound 498] | 5 (Level 5: growth control rate is above 85%) | 5 (Level 5: growth control rate is above 85%) | 5 (Level 5: growth control rate is above 85%) | 5 (Level 5: growth control rate is above 85%) | 5 (Level 5: growth control rate is above 85%) | 5 (Level 5: growth control rate is above 85%) |
| CC(O/N=C/c1cc(-n2c(=O)cc(C(F)(F)F)n(C)c2=O)c(F)cc1Cl)C(N)=O (stereo not drawn) [Compound 499] | 5 (Level 5: growth control rate is above 85%) | 5 (Level 5: growth control rate is above 85%) | 5 (Level 5: growth control rate is above 85%) | 5 (Level 5: growth control rate is above 85%) | 5 (Level 5: growth control rate is above 85%) | 5 (Level 5: growth control rate is above 85%) |
| CC(Cl)=CCOC(=O)C(C)ON=Cc1cc(-n2c(=O)cc(C(F)(F)F)n(C)c2=O)c(F)cc1Cl (stereo not drawn) [Compound 500] | 5 (Level 5: growth control rate is above 85%) | 5 (Level 5: growth control rate is above 85%) | 5 (Level 5: growth control rate is above 85%) | 5 (Level 5: growth control rate is above 85%) | 5 (Level 5: growth control rate is above 85%) | 5 (Level 5: growth control rate is above 85%) |
| C=C(Cl)COC(=O)C(C)O/N=C/c1cc(-n2c(=O)cc(C(F)(F)F)n(C)c2=O)c(F)cc1Cl (stereo not drawn) [Compound 501] | 5 (Level 5: growth control rate is above 85%) | 5 (Level 5: growth control rate is above 85%) | 5 (Level 5: growth control rate is above 85%) | 5 (Level 5: growth control rate is above 85%) | 5 (Level 5: growth control rate is above 85%) | 5 (Level 5: growth control rate is above 85%) |
| CCN(CC)C(=O)C(C)ON=Cc1cc(-n2c(=O)cc(C(F)(F)F)n(C)c2=O)c(F)cc1Cl (stereo not drawn) [Compound 502] | 5 (Level 5: growth control rate is above 85%) | 5 (Level 5: growth control rate is above 85%) | 5 (Level 5: growth control rate is above 85%) | 5 (Level 5: growth control rate is above 85%) | 5 (Level 5: growth control rate is above 85%) | 5 (Level 5: growth control rate is above 85%) |
| CC(ON=Cc1cc(-n2c(=O)cc(C(F)(F)F)n(C)c2=O)c(F)cc1Cl)C(=O)NS(=O)(=O)CCl (stereo not drawn) [Compound 503] | 5 (Level 5: growth control rate is above 85%) | 5 (Level 5: growth control rate is above 85%) | 5 (Level 5: growth control rate is above 85%) | 5 (Level 5: growth control rate is above 85%) | 5 (Level 5: growth control rate is above 85%) | 5 (Level 5: growth control rate is above 85%) |
| COC(=O)C(C)O/N=C/c1nc(-n2c(=O)cc(C(F)(F)F)n(C)c2=O)c(F)cc1Cl (stereo not drawn) [Compound 504] | 5 (Level 5: growth control rate is above 85%) | 5 (Level 5: growth control rate is above 85%) | 5 (Level 5: growth control rate is above 85%) | 5 (Level 5: growth control rate is above 85%) | 5 (Level 5: growth control rate is above 85%) | 5 (Level 5: growth control rate is above 85%) |
| COC(=O)C(C)ON=Cc1nc(-n2c(=O)n(C)c(=S)n(C)c2=O)c(F)cc1Cl (stereo not drawn) [Compound 511] | 5 (Level 5: growth control rate is above 85%) | 5 (Level 5: growth control rate is above 85%) | 5 (Level 5: growth control rate is above 85%) | 5 (Level 5: growth control rate is above 85%) | 5 (Level 5: growth control rate is above 85%) | 5 (Level 5: growth control rate is above 85%) |
